In patent US20240368192A1, “Nitrogen-Containing Heterocyclic Compound, and Preparation Method Therefor, Intermediate Thereof, and Application Thereof” (Shanghai Allist Pharmaceuticals Co., Ltd., priority 2021, published 2024):

Experiments:
Ba/F3 KRAS-G12D cells = Ba/F3 KRAS-G12D cells (Homo sapiens, UniProt P01116, G12D, cells depend on it); test: Proliferation inhibitory activity on Ba/F3 KRAS-G12D stably transfected cell line (CellTiter-Glo, 72 hours); format: cell-based, mouse; details: read-out: Ba/F3 KRAS-G12D IC50
Ba/F3 KRAS-G12D cells, sequence (P01116 whole entry G12D): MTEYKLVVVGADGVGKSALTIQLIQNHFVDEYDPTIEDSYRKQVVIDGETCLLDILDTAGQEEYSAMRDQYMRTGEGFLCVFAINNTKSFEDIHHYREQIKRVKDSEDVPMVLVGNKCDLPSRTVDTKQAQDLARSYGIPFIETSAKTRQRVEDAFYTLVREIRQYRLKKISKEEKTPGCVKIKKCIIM
Excerpt: (§1) Test Example 1: Proliferation Inhibitory Activity on Ba/F3 KRAS-G12D, Ba/F3 KRAS-G12V Stably Transfected Cell Lines and AGS Tumor Cell Lines Containing KRAS G12D Mutations
(§2) To determine the proliferation inhibitory activity of the compounds in vitro on mouse pro-B cells Ba/F3 (Ba/F3 KRAS-G12D and Ba/F3 KRAS-G12V cells stably expressing KRAS G12D/V mutant proteins) and gastric cancer AGS cells expressing KRAS G12D mutant protein.
(§3) Cell sources. Ba/F3 KRAS-G12D and Ba/F3 KRAS-G12V were purchased from Kyinno Biotech (Beijing) Co., Ltd, Cat. No.: KC-1259 and KC-1261, respectively; AGS was purchased from Shanghai Bioleaf Biotech Co., Ltd.
(§4) Cells in the logarithmic growth phase were seeded in a 96-well plate (8000, 8000, 4000 cells/well, 90 μL/well for Ba/F3 KRAS-G12D, Ba/F3 KRAS-G12V, and AGS cells respectively), incubated at 37° C. for 1 day with 5% CO2, and then a gradient dilution of the test compound was added thereto (compounds 1 to 28 and comparative compounds). The details were as follows, the compound stock solution (10 mM) previously dissolved in DMSO was diluted to 10 gradient concentrations at a fold ratio (4 fold) and diluted to 10 fold of the target concentration in another 96-well plate with culture medium, and then 10 μL/well of the compound solution was added to the 96-well plate seeded with cells to reach the target concentration (10000, 2500, 625, 156, 39, 10, 2.5, 0.6, 0.15, 0.04 nM). Each concentration was provided with 3 duplicate wells and a blank control. After continued incubation at 37° C. and 5% CO2 for 72 hours, 50 μL of CellTiter-Glo*2.0 reagent (luciferase ATP bioluminescence detection reagent, purchased from Promega, Cat. No.: G9243) was added to each well, shaken for 2 minutes, and incubated at room temperature for 8 minutes, and then fluorescence luminescence intensity was detected (light collection time was 100 ms). The inhibitory rate of compounds with various concentrations on cell proliferation was calculated. Cell proliferation inhibition rate (%)=[(luminous intensitycontrol group containing cell culture medium for 72 hour−luminous intensitycompound group for 72 hour)/(luminous intensitycontrol group containing cell culture medium for 72 hours−luminous intensitycontrol group without cell culture medium for 72 hour)]×100%. GraphPad Prism 8.3 software was used to analyze the data, and nonlinear S-curve regression was used to fit the data to obtain a dose-effect curve, from which the IC50 value was calculated.

[1] = Body weight change of mice in HPAC xenograft model; format: in vivo; details: 30 mg/kg intraperitoneally twice a day for 10 days, vs D0 weight, HPAC xenograft in BALB/c nude mice
Protocol: Experimental scheme: BALB/c nude mice were subcutaneously inoculated with HPAC cells to establish a cell line xenograft tumor model. The test was divided into a 30 mg/kg group of compound 21, a 30 mg/kg group of comparative compound, and a vehicle group, with 5 mice in each group. The mice were administered intraperitoneally in an administration volume of 10 μL/g. The vehicle group was given an equal amount of vehicle (sulfobutyl-β-cyclodextrin sodium salt dissolved in 50 mM citric acid buffer, the mass-to-volume concentration of sulfobutyl-β-cyclodextrin sodium salt was 10%, and the pH value of the vehicle was 5.0), administered twice a day for 10 days. During the entire experiment, the body weight and tumor size of the mice were measured on days 4, 7, and 10 to observe whether toxic reactions occurred. Efficacy was evaluated based on relative tumor proliferation rate. Other compounds of the present disclosure (compounds 1 to 20 and 22 to 28) were tested with reference to compound 21. Formula for calculating weight change: weight change (%)=(weight/D0 weight−1)×100%.

AGS cells = test: Proliferation inhibitory activity on AGS tumor cell line containing KRAS G12D mutation (CellTiter-Glo, 72 hours); format: cell-based; details: Homo sapiens
Excerpt: as §1, §2, §3, §4

Ba/F3 KRAS-G12V cells = Ba/F3 KRAS-G12V cells (Homo sapiens, UniProt P01116, G12V, cells depend on it); test: Proliferation inhibitory activity on Ba/F3 KRAS-G12V stably transfected cell line (CellTiter-Glo, 72 hours); format: cell-based, mouse; details: read-out: Ba/F3 KRAS-G12V IC50
Ba/F3 KRAS-G12V cells, sequence (P01116 whole entry G12V): as the sequence (P01116 whole entry G12D) above, with D12V counted along it
Excerpt: as §1, §2, §3, §4

HPAC cells = test: In vivo efficacy in HPAC cell line xenograft tumor model; details: 30 mg/kg intraperitoneally twice a day for 10 days, day 10 vs day 0, HPAC xenograft in BALB/c nude mice
Protocol: Test Example 2: In Vivo Efficacy of Test Compounds in HPAC Model
This experiment is used to evaluate the in vivo efficacy of compounds in the HPAC model.
Source of experimental animals: Beijing Vital River Laboratory Animal Technology Co., Ltd., certificate number: 20170011007990.
Animal modeling and random grouping: HPAC cells were cultured and expanded to 30 T175 cm^2 culture flasks. Cells were collected, resuspended in serum-free culture medium DMEM for counting, and added with matrix glue at a ratio of 1:1, and inoculated into the right anterior subcutaneous region of BALB/c Nude mice at 5×10^6 cells/0.1 mL. When the average tumor volume reached approximately 281 mm^3, mice were randomly divided into various experimental groups according to tumor size, with 5 mice per group. The day of grouping was defined as day 0, that is, DO.
Experimental scheme: BALB/c nude mice were subcutaneously inoculated with HPAC cells to establish a cell line xenograft tumor model. The test was divided into a 30 mg/kg group of compound 21, a 30 mg/kg group of comparative compound, and a vehicle group, with 5 mice in each group. […] During the entire experiment, the body weight and tumor size of the mice were measured on days 4, 7, and 10 to observe whether toxic reactions occurred. Efficacy was evaluated based on relative tumor proliferation rate. […]

Compound	GI50 (Ba/F3 KRAS-G12D cells) [nM]	Weight change (%) [1] [%]	IC50 (AGS cells) [nM]	GI50 (Ba/F3 KRAS-G12V cells) [nM]	T/C % (relative tumor proliferation rate) (HPAC cells) [%]
C#Cc1c(F)ccc2cc(O)cc(-c3nc(Cl)c4c(N5C[C@H]6CC[C@@H](C5)N6)nc(OC[C@@]56CCCN5C[C@H](F)C6)nc4c3F)c12 [Compound 21, 4-(4-((1R,5S)-3,8-Diazabicyclo[3.2.1]octan-3-yl)-5-chloro-8-fluoro-2-(((2R,7aS)-2-fluorohexahydro-1H-pyrrolizin-7a-yl)methoxy)pyrido[4,3-d]pyrimidin-7-yl)-5-ethynyl-6-fluoronaphthalen-2-ol]	1	−7.27	9	5000 to 10000	−64.96
C#Cc1c(F)ccc2cc(O)cc(-c3nc(F)c4c(N5C[C@H]6CC[C@@H](C5)N6)nc(OC[C@@]56CCCN5C[C@H](F)C6)nc4c3F)c12 [Compound 22, 4-(4-((1R,5S)-3,8-Diazabicyclo[3.2.1]octan-3-yl)-5,8-difluoro-2-(((2R,7aS)-2-fluorohexahydro-1H-pyrrolizin-7a-yl)methoxy)pyrido[4,3-d]pyrimidin-7-yl)-5-ethynyl-6-fluoronaphthalen-2-ol]	2	–	16	5000 to 10000	–
C#Cc1c(F)ccc2cc(O)cc(-c3ncc4c(N5[C@H]6CC[C@@H]5[C@@H](F)[C@H](N)C6)nc(OC[C@@]56CCCN5C[C@H](F)C6)nc4c3F)c12 [Compound 24, 4-4-(4-((1R,2S,3R,5S)-3-Amino-2-fluoro-8-azabicyclo[3.2.1]octan-8-yl)-8-fluoro-2-(((2R,7aS)-2-fluorohexahydro-1H-pyrrolizin-7a-yl)methoxy)pyrido[4,3-d]pyrimidin-7-yl)-5-ethynyl-6-fluoronaphthalen-2-ol]	1900	–	2500	5000 to 10000	–
C#Cc1c(F)ccc2cc(O)cc(-c3ncc4c(N5[C@@H]6CC[C@H]5[C@H](F)[C@@H](N)C6)nc(OC[C@@]56CCCN5C[C@H](F)C6)nc4c3F)c12 [Compound 25, 4-(4-((1S,2R,3S,5R)-3-Amino-2-fluoro-8-azabicyclo[3.2.1]octan-8-yl)-8-fluoro-2-(((2R,7aS)-2-fluorohexahydro-1H-pyrrolizin-7a-yl)methoxy)pyrido[4,3-d]pyrimidin-7-yl)-5-ethynyl-6-fluoronaphthalen-2-ol]	1000	–	2500	5000 to 10000	–
Oc1cc(-c2nc(Cl)c3c(N4C[C@H]5CC[C@@H](C4)N5)nc(OC[C@@]45CCCN4C[C@H](F)C5)nc3c2F)c2c(F)c(F)ccc2c1 [Compound 26, 4-(4-((1R,5S)-3,8-diazabicyclo[3.2.1]octan-3-yl)-5-chloro-8-fluoro-2-(((2R,7aS)-2-fluorohexahydro-1H-pyrrolizin-7a-yl)methoxy)pyrido[4,3-d]pyrimidin-7-yl)-5,6-difluoronaphthalen-2-ol]	1.7	–	28	5000 to 10000	–
